Measured values reported in PubChem BioAssay AID1259418 (Broad Institute, 2018).
“And” between values parts separate entries of the source, which are not always exact repeats. Identical values can stand only once. Results filed as inconclusive are left out. The source made the active and inactive calls.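 Rule for the calls: active = fitted half-maximal concentration of signal decrease at or below twice the sample's top tested concentration; inconclusive = flat curve between -70 and -30 percent, or poor fit; inactive = flat within 30 percent, signal rise, or potency above limit.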

biological target: T. gondii ME49Luc in IFN-y HeLa, luciferase, 72 h; assay: inhibitors of Toxoplasma growth in IFN-γ-primed HeLa – cell-based, ME49Luc, luciferase, 72 h, dose response (AID 1259418)

Point of comparison: `Clc1ccc(-c2nc(NCc3ccc4c(c3)OCO4)c3ccccc3n2)cc1`, AC50 11.3 µM. Against it:
- CCOc1ccccc1N(Cc1nc(-c2ccccc2)oc1C)S(=O)(=O)c1cccs1 — within 1.5-fold, 7.76 µM
- COc1ccc(-c2nc(NCC3CCN(Cc4ccc(C)cc4)CC3)c3ccccc3n2)cc1 — within 1.5-fold, 8.66 µM
- COc1ccccc1-c1ccc([C@H]2[C@H](CO)N[C@@H]2C#N)cc1 — 2.1-fold higher, 24 µM
- CC(C)c1cccc(NC(=O)C[C@H]2CC[C@H]3[C@@H](COc4ccc(NS(=O)(=O)c5ccccc5Cl)cc4C(=O)N3C)O2)c1 — 2-fold higher, 22.6 µM
- COc1ccc(-c2nc(NCCCN3CCCC3)c3ccccc3n2)cc1 — within 1.5-fold, 14.2 µM
- O=C(Cc1ccncc1)N1CCCCN2[C@H](CO)[C@@H](c3ccc(C#Cc4ccccc4F)cc3)[C@H]2C1 — 1.6-fold higher, 18.5 µM
- O=C(CCn1cnc2cc(-c3noc(-c4cc5cc(Cl)ccc5[nH]4)n3)ccc21)N1CCCC1 — 2.1-fold higher, 23.7 µM
- COc1ccc(-c2nc(NCCN3CCCCC3C)c3ccccc3n2)cc1 (stereo not given) — within 1.5-fold, 13.4 µM
- C=CCN1CCC2(CC1)CC(NCc1ccc(C)s1)c1ccccc1O2 (stereo not given) — within 1.5-fold, 12.1 µM
- Cc1cc(C)cc(S(=O)(=O)N2CCC3(CC2)NCCN=C3NCc2ccc(C(F)(F)F)cc2)c1 — 1.7-fold lower, 6.65 µM
- COCC(=O)N1CCC2(CC1)CN(Cc1nccs1)CCO2 — 1.6-fold higher, 17.9 µM
- NC(N)=N/N=C/c1c(Cl)cccc1Cl — 1.7-fold higher, 19.7 µM
- O=S(=O)(c1ccc2c(c1)CCCC2)N1CCC2(CC1)NCCN=C2NCc1ccc(Cl)cc1 — within 1.5-fold, 9.16 µM
- CS(=O)(=O)N1CSC[C@@H]1C(=O)NCCc1csc(-c2ccccc2)n1 — 2.7-fold higher, 30.8 µM
- CO[C@@H]1CCN(S(=O)(=O)N(C)C)C[C@@H]1Cc1cccc(C)c1 — 2.1-fold higher, 23.5 µM
- COC[C@]12CCC[C@@H]1CN(S(=O)(=O)c1cccc(OC)c1)C2 — 3.2-fold higher, 36.2 µM
- COc1ccc(N(Cc2nc(-c3ccc(C)cc3)oc2C)S(=O)(=O)c2ccccc2)cc1 — within 1.5-fold, 15.2 µM
- Cc1ccn(CCNc2nccc(-c3c(C)nn(C)c3C)n2)n1 — 1.7-fold higher, 18.8 µM
- COc1ccc(-c2nc(NCCCN3CCN(c4ccccc4)CC3)c3ccccc3n2)cc1 — 2.6-fold higher, 29.8 µM
- N#Cc1cccc(-c2ccc3c(c2)[C@@H]2[C@@H](CCN2S(=O)(=O)c2ccc(F)cc2)[C@@H](CO)N3)c1 — within 1.5-fold, 15.7 µM
- O=C(CCC1N=C2c3ccccc3N=C(SCc3ccc(F)cc3)N2C1=O)NCc1ccccc1 (stereo not given) — 2.8-fold higher, 31.8 µM
- CS(=O)(=O)N1CC(=O)N2[C@H](CO)[C@@H](c3ccc(C#Cc4ccc(F)cc4)cc3)[C@H]2C1 — 3.5-fold higher, 39 µM
- Cc1ccc2[nH]c(C(=O)NCc3cccnc3)c(NC(=O)c3ccc(F)cc3)c2c1 — 2.4-fold higher, 27.6 µM
- Cc1ccc(CN2CC3CN(Cc4cccc(F)c4)CC3C2)s1 (stereo not given) — within 1.5-fold, 9.23 µM
- CS(=O)(=O)N1CC(=O)N2[C@H](C1)[C@@H](c1ccc(C#Cc3ccc(F)cc3)cc1)[C@@H]2CO — 2-fold higher, 22.8 µM
- COc1ccc(S(=O)(=O)N(C)C[C@H]2Oc3c(NC(=O)c4nc5ccccc5s4)cccc3C(=O)N([C@@H](C)CO)C[C@H]2C)cc1 — 1.9-fold higher, 21.8 µM
- COc1cccc(N(Cc2nc(-c3cccc(C)c3)oc2C)S(=O)(=O)c2ccccc2)c1 — within 1.5-fold, 8.5 µM
- O=C(CC1Nc2c3ccccc3nc(=S)n2C1=O)N1CCN(c2ccccc2F)CC1 (stereo not given) — 2.6-fold higher, 29.7 µM
- O=C(CCc1ccccc1)N1CCC2(CC1)Nc1ccc(Cl)cc1-n1cccc12 — 2.4-fold higher, 27.4 µM
- COC(=O)c1ccccc1NC(=O)COc1nc(C)nc2ccccc12 — 1.8-fold higher, 20.9 µM
- N#C[C@H]1N[C@@H](CO)[C@@H]1c1ccc(C#CC2CCCCC2)cc1 — 1.7-fold higher, 19.1 µM
- O=C(C[C@H]1CC[C@H]2[C@@H](COC[C@H](O)CN2S(=O)(=O)c2ccccc2)O1)NCC1CCCCC1 — 1.8-fold higher, 20.8 µM
- CN(C)CCNC(=O)c1c2c(NCc3cccnc3)ncnc2n2ccccc12 — 2.9-fold higher, 32.4 µM
- CN1C(=O)c2cc(NC(=O)Cc3cccs3)ccc2OC[C@H]2O[C@@H](CC(=O)NCc3ccc(-c4ccccc4)cc3)CC[C@@H]21 — within 1.5-fold, 12.8 µM
- COc1ccccc1N(Cc1nc(-c2cccc(C)c2)oc1C)S(=O)(=O)c1ccc(C)cc1 — within 1.5-fold, 9.12 µM
- Cc1ccc(CNC(=O)CC2Nc3c4ccccc4nc(=S)n3C2=O)cc1 (stereo not given) — 2.8-fold higher, 31.5 µM
- O=C(CC1N=C2c3ccccc3N=C(SCc3ccccc3F)N2C1=O)NC1CCCCC1 (stereo not given) — 1.7-fold higher, 19.1 µM
- Fc1ccc(CSc2nc(NCc3ccccc3)c3ccccc3n2)cc1 — 1.6-fold higher, 17.8 µM
- Cc1cccc(NC(=O)COc2nc(C)nc3ccccc23)c1 — 2.8-fold higher, 32 µM
- Fc1cccnc1OC1COC2(CCN(Cc3ccsc3)CC2)C1 (stereo not given) — 2.2-fold higher, 24.8 µM
- Cc1cccc(-c2nc(Cn3nnc(-c4nc(-c5ccncc5)no4)c3C)c(C)o2)c1 — within 1.5-fold, 8.63 µM
- CCOc1ccccc1N(Cc1nc(-c2ccccc2OC)oc1C)S(=O)(=O)c1cccs1 — within 1.5-fold, 12.2 µM
- N#C[C@H]1[C@@H](c2ccc(-c3cccc(F)c3)cc2)[C@H](CO)N1C(=O)NC1CCCC1 — within 1.5-fold, 10.1 µM
- COc1ccc(-c2ccc3nc(CO)[nH]c3c2)cc1Cl — within 1.5-fold, 16.2 µM
- CCc1ccc(S(=O)(=O)N2CCC3(CC2)NCCN=C3NCc2ccc(F)c(Cl)c2)cc1 — 2.4-fold lower, 4.73 µM
- COc1ccc(-c2ccc3c(c2)[C@H]2[C@H](CCN2C(=O)c2cccc(F)c2)[C@H](CO)N3)cc1 — within 1.5-fold, 16 µM
- Cc1cccc(-c2ccc(C3[C@@H]4CN(Cc5cccc(F)c5)C[C@H]3N4)cc2)c1 (stereo not given in full) — 2.3-fold higher, 26.2 µM
- NCCCCCCCCCCNS(=O)(=O)c1cccc2c(Cl)cccc12 — 1.9-fold higher, 21.2 µM
- COC1(C)CC2C(CC1OC(=O)c1cc([N+](=O)[O-])cc([N+](=O)[O-])c1)C2(C)C (stereo not given) — within 1.5-fold, 12.4 µM
- O=C(NCCc1csc(-c2ccccc2)n1)C1CCN(S(=O)(=O)c2ccc(F)cc2)CC1 — within 1.5-fold, 11.4 µM
- COc1ccc(N(Cc2nc(-c3ccccc3)oc2C)S(=O)(=O)c2ccccc2C)cc1 — within 1.5-fold, 11.6 µM
- O=C(CC1N=C2c3ccccc3N=C(SCc3ccccc3Cl)N2C1=O)NCc1cccs1 (stereo not given) — 1.9-fold higher, 21.5 µM
- C/C=C/c1ccc([C@H]2[C@@H](CO)N3CCCCN(S(=O)(=O)c4ccc(OC)cc4)C[C@@H]23)cc1 — 1.6-fold higher, 18.4 µM
- Cc1ccc2c(c1)c1ncn(Cc3nc(C(C)C)no3)c(=O)c1n2CC(=O)N1CCCC1 — within 1.5-fold, 14.5 µM
- CCCCCCCCCCCCCCCC[N+](C)(C)C — within 1.5-fold, 16.3 µM
- O=S(=O)(c1ccccc1)N(CC(F)(F)F)c1ccc(C(O)(C(F)(F)F)C(F)(F)F)cc1 — 1.7-fold higher, 19 µM
- Cc1ccc(-c2nc(CN(c3ccccc3)S(=O)(=O)c3ccccc3)c(C)o2)cc1 — within 1.5-fold, 10.3 µM
- O=C(CC1CCC2(CC1)CCN(c1ncc(F)cn1)CC2)N1CC=CC1 — 1.7-fold higher, 19.3 µM
- O=S(=O)(c1ccc2c(c1)CCCC2)N1CCC2(CC1)NCCN=C2NC1CCCCC1 — within 1.5-fold, 11.7 µM
- CCc1ccc(S(=O)(=O)N2CCC3(CC2)NCCN=C3NCc2ccc(Cl)cc2)cc1 — within 1.5-fold, 7.78 µM
- O=C(NC1CCCC1)N1CC(=O)N2[C@H](CO)[C@H](c3ccc(C4=CCCCC4)cc3)[C@@H]2C1 — 3.1-fold higher, 35.3 µM
- CC(C)CNC(=O)c1nc2c(s1)CCN(C(=O)NCc1ccccc1)CC2 — within 1.5-fold, 16.1 µM
- O=C(c1cnccn1)N1CC(=O)N2[C@H](CO)[C@H](c3ccc(/C=C/c4ccccc4)cc3)[C@@H]2C1 — 2.2-fold higher, 24.8 µM
- CCCNC(=O)[C@@H]1[C@@H](CO)[C@@H]2Cn3c(ccc(/C=C/c4ccccc4)c3=O)[C@@H]2N1CC1CC1 — 1.6-fold higher, 18.5 µM
- O=C(c1cccc(F)c1)N1CC(=O)N2[C@H](CO)[C@H](c3ccc(/C=C/c4ccccc4)cc3)[C@@H]2C1 — 1.7-fold higher, 19.6 µM
- CCCC(C)c1c(-c2ccccc2)ncn1Cc1cnc(C)cn1 (stereo not given) — 3-fold higher, 33.4 µM
- Cc1cccc(NC(=O)c2cc(-c3cnc(N4CCOCC4)nc3)cn2CC2CC2)c1 — 2-fold higher, 22.2 µM
- Cc1cc(C)c(S(=O)(=O)N2CCC3(CC2)NCCN=C3NCc2ccccc2C)cc1C — 1.8-fold lower, 6.27 µM
- Cc1ccccc1S(=O)(=O)N1C[C@@H]2N[C@H](C1)C2c1ccc(/C=C/c2ccccc2)cc1 (stereo not given in full) — within 1.5-fold, 9.34 µM
- O=C(CC1CC1)N1CC[C@@H]2[C@H]1c1cc(-c3ccc(F)cc3)ccc1N[C@@H]2CO — 1.7-fold higher, 19.7 µM
- CC(C)Cc1ccc(S(=O)(=O)N2CCC3(CC2)NCCN=C3NCc2cccc(F)c2)cc1 — 2.2-fold lower, 5.25 µM
- Clc1ccc(-c2nc(N3CCC(N4CCCCC4)CC3)c3ccccc3n2)cc1 — 1.6-fold higher, 18.4 µM
- COc1ccc(-c2nc(CN(c3ccccc3OC)S(=O)(=O)c3cccs3)c(C)o2)cc1 — within 1.5-fold, 13.7 µM
- O=C(Cc1cccnc1)N1CC(=O)N2[C@H](CO)[C@@H](c3ccc(C#CC4CCCCC4)cc3)[C@H]2C1 — within 1.5-fold, 16.4 µM

In the case of `COc1cccc(NC(=O)Nc2ccc(-c3nc(-c4ccc(C)cc4C)co3)cc2)c1`, the AC50 was > 39 µM (inactive).
In the case of `CC(C)C#Cc1ccc([C@@H]2[C@@H](CO)N(C(=O)c3cccc(F)c3)[C@H]2C#N)cc1`, the AC50 was 14.2 µM and 27.9 µM.
In the case of `Clc1ccccc1CSc1nc(NCc2ccccc2)c2ccccc2n1`, the AC50 was > 39 µM (inactive).
In the case of `COc1cc(CN2C[C@@H]3N[C@H](C2)C3c2ccc(-c3ccc(C#N)cc3)cc2)cc(OC)c1` (stereo not given in full), the AC50 was 6.02 µM and 7.29 µM and 16.7 µM.
`O=S(=O)(c1cccs1)N1CCC2(CC1)NCCN=C2NCc1ccc(Cl)cc1` was tested, and the AC50 was > 39 µM (inactive).
For `COc1ccccc1-c1nc(Cn2nnc(-c3nc(-c4ccc(C)cc4)no3)c2C)c(C)o1`, the AC50 was > 20 µM (inactive).
For `COc1cccc(S(=O)(=O)N2CCCCN3[C@H](C2)[C@H](c2ccc(C#CCC(C)C)cc2)[C@@H]3CO)c1`, the AC50 was 9.96 µM and 8.54 µM.
In the case of `CC(C)CC#Cc1ccc([C@@H]2[C@@H](CO)N3CCCCN(C(=O)Nc4ccccc4)C[C@@H]23)cc1`, the AC50 was 22.5 µM and 15.4 µM.
In the case of `O=C1CCc2cc(S(=O)(=O)NCc3ccco3)cc3c2N1CCC3`, the AC50 was > 39 µM (inactive).
For `Cc1cccc(-c2ccc([C@H]3[C@@H](CO)N4CCCCN(S(=O)(=O)c5ccccc5F)C[C@H]34)cc2)c1`, the AC50 was 16.9 µM and 13.6 µM.
In the case of `COc1ccc(CNC(=O)COc2nc(C)nc3ccccc23)cc1`, the AC50 was > 39 µM (inactive).
With `CCCNC(=O)c1cc(-c2cnc(NCc3ccccc3)nc2)cn1C` the AC50 was 7.07 µM and 17.3 µM.
With `CCSc1ccc(-c2sc(-c3ccc(OC)cc3)nc2C)nn1` the AC50 was > 39 µM (inactive).
For `C[C@@H]1CN([C@@H](C)CO)C(=O)Cc2cc(NS(=O)(=O)c3ccc(Cl)cc3)ccc2O[C@@H]1CN(C)C(=O)Nc1ccc(C(F)(F)F)cc1`, the AC50 was 27.9 µM and 13.5 µM.
With `CC(C)NC(=O)N1CC(=O)N2[C@H](CO)[C@@H](c3ccc(/C=C/c4ccccc4)cc3)[C@H]2C1` the AC50 was 26.5 µM and 8.87 µM.
In the case of `COCC(=O)N1[C@H](C#N)[C@H](c2ccc(C#CCC3CCCC3)cc2)[C@@H]1CO`, the AC50 was 29.6 µM and 27.8 µM.
`COc1ccccc1C#Cc1ccc([C@H]2[C@H](CO)N3CCCCN(C(=O)C4CCC4)C[C@@H]23)cc1` was tested, and the AC50 was 13.5 µM and 5.77 µM.
With `COc1ccccc1C1CN(Cc2cccc(O)c2)Cc2ccccc2O1` (stereo not given) the AC50 was 34.4 µM and 27.5 µM.
In the case of `COc1ccc(-c2nc3c(s2)CN(C(=O)Nc2cccc(C)c2)CC3)cc1OC`, the AC50 was > 39 µM (inactive).
With `Cc1ccccc1CN1C[C@@H]2c3nc(N4CCCC(C)C4)ncc3CS(=O)(=O)[C@H]2C1` (stereo not given in full) the AC50 was 24.5 µM and 4.74 µM.
